# Experimental data reported in US20140037798A1, “LIQUID NUTRITIONAL PRODUCTS COMPRISING METAL AMINO ACID CHELATES” (ABBOTT LABORATORIES, priority 2011, published 2014).
# Assays:
# [1] = cocoa powder 0.80% (w/w), pH 6.8 HEPES, cocoa powder:iron 40:1, 99° C. thirty minutes, 0.45 μm filtrate
# Experimental: The visible absorbance of liquids including a mixture of cocoa powder and an iron-containing component is measured to determine the ability of various ferric salts, including ferric amino acid chelates, to decrease reactivity between the iron and the cocoa powder.
# Various samples are prepared as described herein using various iron-containing components. All mixtures contain cocoa powder at 0.80% (w/w) in pH 6.8 buffer (0.10M HEPES). The control liquid is prepared without any iron-containing component. In the remaining samples, the iron components are added so that the weight ratio of cocoa powder:iron is 40:1 (w/w).
# [2] = Methionine sulfoxide concentration in nutritional emulsion, marker of reactive oxygen species generation; assay type: physicochemical; conditions: copper ingredient 35 μM, retort sterilized
# [3] = Vitamin B12 recovery in retort sterilized chocolate flavored nutritional emulsion (validated HPLC); conditions: copper ingredient 35 μM
# Experimental: Once prepared, the emulsions are analyzed for vitamin B12 recovery using a fully validated HPLC method to determine the amount of vitamin B12 remaining (i.e., not lost to oxidative destruction) in the nutritional emulsion.
Molecule,"Absorbance, Filtrate v. Blank, 535 nm [1]","Absorbance, Filtrate v. Blank, 600 nm [1]","Absorbance, Filtrate v. Blank, 700 nm [1]","Methionine sulfoxide, as mole % of total methionine [2]",Vitamin B12 [3]
NCC(=O)[O-].NCC(=O)[O-].[Fe+2] [Ferrous bis-glycinate],1200 mAU,1040 mAU,567 mAU,,
Ferric bis-glycinate,610 mAU,319 mAU,101 mAU,,
Ferrous sulfate [reference compound],1240 mAU,1150 mAU,688 mAU,,
"O=P([O-])([O-])[O-].[Fe+3] [Ferric orthophosphate, reference compound]",579 mAU,237 mAU,65 mAU,,
Ferrous gluconate,1230 mAU,1100 mAU,607 mAU,,
"NCC(=O)[O-].NCC(=O)[O-].[Cu+2] [Copper bis-glycinate chelate, copper bis-glycinate chelate]",,,,18.1%,41.3 µg/kg
copper lysine chelate,,,,17.4%,47.0 µg/kg
copper gluconate,,,,17.9%,46.4 µg/kg
"O.O.O.O.O.O=S(=O)([O-])[O-].[Cu+2] [Control (CuSO4), copper sulfate pentahydrate, reference compound]",,,,18.8%,38.5 µg/kg
